Data as given in patent publication US12022830B2, “Formulations of metal and ascorbic acid complexes, their obtaining and use” (INTERMAG SP. Z O.O., priority 2017, dated 2024).

What was measured:
Gibberella avenacea = test: Infestation of wheat spikes by Gibberella avenacea; type: in vivo; details: sprayed plants, control 10%
Text: (§1) In the case of diseases attacking spikes, on the control combination, infestation by Cladosporium herbarum at 20%, by Septoria nodorum at 10% and by Gibberella avenacea at 10% were found. On sprayed plants, infestations were 1%, 1% and 0% respectively.

[1] = tested on: Iceberg cabbage lettuce (Lactuca sativa) of Rubette type; test: Titanyl ascorbates in cultivation of iceberg lettuce, head mass, chlorophyll, flavonoids; type: in vivo; details: foliar twice, 0.00085% Ti, total 3.4 g Ti/ha
Procedure: Iceberg cabbage lettuce (Lactuca sativa) of Rubette type was cultivated in a plastic tunnel in pots with a capacity of 3 l filled with a peat substrate. […] In two applications, the total titanium dose per hectare was 3.4 g Ti/ha. The experiment was performed in a random block system, combinations were drawn in 4 blocks. […] Flavonoids are antioxidant compounds, they protect plant cell structures against reactive oxygen species formed under the influence of abiotic and biotic stress factors. These compounds are the first to be synthesised when unfavourable conditions of the growing environment occur.

butterhead lettuce = test: Cultivation of butterhead lettuce, uptake of nutrients; type: in vivo; details: aboveground parts, dry mass, 20th day, two sprays, 0.0085% Ti
Procedure: TiO(OH)(C6H7O6).1H2O was used in the amount of 9.7 g/ha (0.005%, 0.0085% Ti), (TiO(C6H7O6)2.2H2O) was used in the amount of 16.3 g/ha (0.008%, 0.0085% Ti), TiO(C6H7O6)3.3H2O was used in the amount of 22.9 g/ha (0.011%, 0.0085% Ti), TiO(C6H7O6)4.5H2O was used in the amount of 30.9 g/ha (0.015%, 0.0085% Ti) in a single spray after previously dissolving them in 200 l of water. The spraying was performed with a manual sprayer at the smallest possible drop setting. Plants were sprayed evenly from a distance of about 30 cm.
Substrate: a mixture of peat deacidified with chalk (producer: Hollas) and rinsed quartz sand with a granulation of 4-8 mm. Volume ratio of the mixture: 1:4. Agrofoska (Intermag) fertiliser in the amount of 3 kg/m^3 was added to the substrate. Pots with a volume of about 3 l were used.
Spraying was performed twice with the preparation with the same concentrations of working liquid: spray 1 on the 7th day of the experiment; spray 2 on the 14th day of the experiment.
The experiment was randomised and there were 10 repetitions for each combination (1 repetition=one pot)
(§2) The content of nutrients was tested in the aboveground parts of plants, based on dry mass content.

corn borer moth = test: Infestation of corn by corn borer moth; type: in vivo; details: foliar, 32.6 g TiO(Asc)2.2H2O/ha, three dates
Septoria nodorum = test: Infestation of wheat spikes by Septoria nodorum; type: in vivo; details: sprayed plants, control 10%
Text: as §1

cereal leaf beetle = test: Infestation of wheat by cereal leaf beetle; type: in vivo; details: foliar, 32.6 g TiO(Asc)2.2H2O/ha, three dates
fragility of stem base = test: Infestation of wheat through the fragility of stem base; type: in vivo; details: treated plants; control 48% infested plants
[2] = tested on: fusarium foot and root rot; test: Fusarium foot and root rot on wheat; type: in vivo; details: sprayed plants; control 12% of infestations
wheat = test: Cultivation of wheat, chlorophyll content and uptake of nutrients; type: in vivo; details: for Content of chlorophyll in leaves: 20th day of the experiment; for Fe content / K content / P content / Ti content / Zn content: aboveground parts, dry mass, 20th day
Procedure: Experiments for the use of titanium complex in the solid formulation TiO(Asc)2.2H2O on wheat were performed analogously to Example 14.
as §2

[3] = Study of solution stability for a given complex; type: physicochemical
Cladosporium herbarum = test: Infestation of wheat spikes by Cladosporium herbarum; type: in vivo; details: sprayed plants, control 20%
Text: as §1

corn of Wilga type = details: foliar, 32.6 g TiO(Asc)2.2H2O/ha, BBCH 12-14, 18-20, 35-39
Procedure: (§3) The experiments on the effect of the formulations according to the invention (liquid preparation obtained after dissolving the solid blend, according to the invention) were performed on winter oilseed rape, winter wheat and corn plants at the Institute of Plant Protection in Poznan at the Experimental Station in Winna Góra.

wheat of Figura type = details: foliar, 32.6 g TiO(Asc)2.2H2O/ha, BBCH 22-29, 30-51, 51-73
Procedure: as §3

cabbage seed weevil = details: foliar, 32.6 g TiO(Asc)2.2H2O/ha, three dates
Procedure: as §3

Alternaria brassicae = details: foliar, 32.6 g TiO(Asc)2.2H2O/ha, three dates
Procedure: as §3

Botrytis cinerea = details: foliar, 32.6 g TiO(Asc)2.2H2O/ha, three dates
Procedure: as §3

[4] = tested on: winter oilseed rape of Artoga type; details: foliar, 32.6 g TiO(Asc)2.2H2O/ha, BBCH 21-36, 50-61, 69-73
Procedure: as §3

rape = test: Cultivation of rape, vegetative mass and uptake of nutrients; type: in vivo; details: for Number of plant leaves / Total wet mass of the aboveground part / Wet mass of leaves / Wet mass of stem: 20th day of the experiment; for Fe content / Mg content / Mn content / P content / Si content / Ti content / Zn content: aboveground parts, dry mass, 20th day
Procedure: Experiments for the use of titanium complex for rape were performed analogously to Example 14.
as §2

[5] = 5% solution obtained by dissolving in water

For `O.O.O=C1OC(C(O)CO)C([O-])=C1O.O=C1OC(C(O)CO)C([O-])=C1O.[O]=[Ti+2]` (stereo not drawn) [TiO(C6H7O6)2•2H2O, titanyl ascorbate], the “infestation by Gibberella avenacea” value (Gibberella avenacea) was 0%, the Chlorophyll [1] was 27.4 μg/cm^2 and the Dry mass [1] was 7.23 g. The Flavonoids [1] was 0.32 μg/cm^2, the Mass of head [1] was 82.8 g and the B content (butterhead lettuce) was 83.31 mg/kg. It also gave a Ca content (butterhead lettuce) of 17.41 g/kg, a Cu content (butterhead lettuce) of 7.13 mg/kg and a Fe content (butterhead lettuce) of 794.44 mg/kg. For the same molecule, the K content (butterhead lettuce) was 7.48 g/kg, the Mg content (butterhead lettuce) was 6.66 g/kg and the Mn content (butterhead lettuce) was 687.51 mg/kg. It also gave a S content (butterhead lettuce) of 7.41 g/kg, a Ti content (butterhead lettuce) of 4.27 mg/kg and a Zn content (butterhead lettuce) of 154.18 mg/kg. For the same molecule, the “decrease in the infestation by corn borer moth in comparison to untreated plants” value (corn borer moth) was 43%, the “infestation by Septoria nodorum” value (Septoria nodorum) was 1% and the “decrease in the infestation by cereal leaf beetle in comparison to untreated plants” value (cereal leaf beetle) was 74%. The “infestation through the fragility of stem base” value (fragility of stem base) was 4%, the “symptoms of fusarium foot and root rot” value [2] was “not any symptoms” and the “Content of chlorophyll in leaves” value (wheat) was 48.03 SPAD. The Fe content (wheat) was 85.056 mg/kg, the K content (wheat) was 55.27 g/kg and the P content (wheat) was 10.43 g/kg. The Ti content (wheat) was 1.390 mg/kg, the Zn content (wheat) was 48.850 mg/kg and the “stable during long storage” value [3, 5] was “up to 12 months”. For the same molecule, the “temperature at which the solution remains stable” value [3, 5] was −5 to +40 °C, the “behaviour after freezing and thawing” value ([3]; 5% solution, overcooled below −7° C., then raised above 0° C.) was “retains its original physicochemical properties” and the “stability of the solution among the complexes” value ([3]; complexes in the form of solutions) was “most stable”. For the same molecule, the “infestation by Cladosporium herbarum” value (Cladosporium herbarum) was 1%, the “Corn yield increased compared to the control combination” value (corn of Wilga type) was 13 % (m/m) and the “Wheat yield increased compared to the control combination” value (wheat of Figura type) was 16 % (m/m). The “Siliques damaged by cabbage seed weevil fewer than in the control combination” value (cabbage seed weevil) was 80%, the “Infestation of siliques by Alternaria brassicae smaller than the control combination” value (Alternaria brassicae) was 52% and the “Infestation of siliques by Botrytis cinerea smaller than the control combination” value (Botrytis cinerea) was 77%. For the same molecule, the “Rape yield increased compared to the control combination” value [4] was 15%.
With `O.O=C1OC(C(O)CO)C([O-])=C1O.[OH-].[O]=[Ti+2]` (stereo not drawn) [TiO(OH)(C6H7O6)•1H2O, titanyl ascorbate] the “Number of plant leaves” value (rape) was 8.28, the “Total wet mass of the aboveground part” value (rape) was 38.3 and the “Wet mass of leaves” value (rape) was 19.00 g. The “Wet mass of stem” value (rape) was 21.53 g, the Fe content (rape) was 1957.19 mg/kg and the Mg content (rape) was 8.859 g/kg. For the same molecule, the Mn content (rape) was 1350.53 mg/kg, the P content (rape) was 8.74 g/kg and the Si content (rape) was 118.21 mg/kg. The Ti content (rape) was 1.55 mg/kg, the Zn content (rape) was 362.63 mg/kg and the “Content of chlorophyll in leaves” value (wheat) was 47.17 SPAD. The Fe content (wheat) was 96.280 mg/kg, the K content (wheat) was 57.21 g/kg and the P content (wheat) was 9.86 g/kg. For the same molecule, the Ti content (wheat) was 1.444 mg/kg and the Zn content (wheat) was 47.880 mg/kg.
titanyl ascorbate [TiO(C6H7O6)3•3H2O] showed a B content (butterhead lettuce) of 72.35 mg/kg, a Ca content (butterhead lettuce) of 17.84 g/kg and a Cu content (butterhead lettuce) of 5.46 mg/kg. It also gave a Fe content (butterhead lettuce) of 842.63 mg/kg, a K content (butterhead lettuce) of 6.97 g/kg and a Mg content (butterhead lettuce) of 6.03 g/kg. For the same molecule, the Mn content (butterhead lettuce) was 757.37 mg/kg, the Si content (butterhead lettuce) was 257.62 mg/kg and the Ti content (butterhead lettuce) was 2.37 mg/kg. For the same molecule, the Zn content (butterhead lettuce) was 155.38 mg/kg, the “Number of plant leaves” value (rape) was 7.94 and the “Total wet mass of the aboveground part” value (rape) was 39.61. For the same molecule, the “Wet mass of leaves” value (rape) was 17.74 g, the “Wet mass of stem” value (rape) was 21.58 g and the Fe content (rape) was 1739.07 mg/kg. For the same molecule, the Mg content (rape) was 7.86 g/kg, the Mn content (rape) was 1440.47 mg/kg and the P content (rape) was 11.43 g/kg. For the same molecule, the Si content (rape) was 159.40 mg/kg, the Ti content (rape) was 1.07 mg/kg and the Zn content (rape) was 413.68 mg/kg. For the same molecule, the “Content of chlorophyll in leaves” value (wheat) was 45.60 SPAD, the Fe content (wheat) was 97.390 mg/kg and the K content (wheat) was 57.22 g/kg. The P content (wheat) was 9.47 g/kg, the Ti content (wheat) was 1.311 mg/kg and the Zn content (wheat) was 51.410 mg/kg.
With titanyl ascorbate [TiO(C6H7O6)4•5H2O] the “Content of chlorophyll in leaves” value (wheat) was 47.06 SPAD, the Fe content (wheat) was 100.910 mg/kg and the K content (wheat) was 53.29 g/kg. It also gave a P content (wheat) of 10.09 g/kg, a Ti content (wheat) of 1.150 mg/kg and a Zn content (wheat) of 44.290 mg/kg.
